Assay results reported in patent US20100184213A1, “APOCRINE CELL LINE” (priority 2007, published 2010).
pIC50: −log10 of the molar value.

Tests used:
[1] = tested on: proliferating apocrine cultures (ASG5); test: Short circuit current (Isc) in Ussing chamber, proliferating apocrine cultures on Transwells; type: cell-based, human; settings: for Peak agonist Isc response, Control / Peak agonist Isc response, Chloride-free: proliferating (ASG5), Carbachol 20 μM; for Peak agonist Isc response, Control / Peak agonist Isc response after amiloride pre-treatment, Control: chloride-containing buffer; for Peak agonist Isc response, Control / Peak agonist Isc response, Chloride-free / Peak agonist Isc response after amiloride pre-treatment, Control / Peak agonist Isc response after amiloride pre-treatment, Chloride-free: Histamine 200 μM, ATP 100 μM; for Peak agonist Isc response after amiloride pre-treatment, Control / Peak agonist Isc response after amiloride pre-treatment, Chloride-free / ΔIsc (change of resting short circuit current): proliferating apocrine; for Peak agonist Isc response after amiloride pre-treatment, Control / Peak agonist Isc response after amiloride pre-treatment, Chloride-free: Carbachol 200 μM, Isoprenaline ≧1 μM, LBK 170 nM; for ΔIsc (change of resting short circuit current): furosemide 1 mM basolateral
Experimental: (§1) After 13-18 days, confluent ASG5 cultures were passaged onto Transwell collagen-coated permeable supports (0.33 cm^2 area, Costar, cat. no. 3495, High Wycombe, Bucks, UK). This involved incubation in 2% EDTA for 20 minutes, followed by trypsin (0.5%)-EDTA (0.2%) for approximately five minutes. 3×10^5 cells were transferred onto each Transwell supplemented with WEM. The Transwell supports were suspended in 24-well plates in 0.6 ml of the same medium. For primary cultures, only first passage cells were used in experiments. The medium bathing cultures on Transwells was changed every two days.
(§2) Transepithelial resistance (TER) across epithelia on Transwells was monitored using ‘chopstick’ electrodes (WPI, Alresford, Hants, UK) connected to an ohmmeter. The TER was estimated by subtracting the measurement for a moistened filter blank. At peak TER, the Transwell supports were mounted in an Ussing Chamber. Epithelia were bathed in a modified Krebs buffer, oxygenated and maintained at 37° C., pH 7.4, with 95% O2/5% CO2. The buffer consisted of (mM): NaCl, 117; KCl, 4.7; CaCl2, 1.5; MgSO4, 1.2; NaHCO3, 25; and glucose, 11.1. Voltage and current electrodes (calomel and silver/silver chloride respectively, ABB Kent Taylor, Stonehouse, Glos, UK), connected to a voltage/current clamp were extended into the bath via bridges containing agar dissolved in 3 M potassium chloride.
(§3) Voltage electrodes were balanced in the absence of a Transwell and fluid resistance between the voltage electrodes was compensated for by the injection of an arbitrary DC current. After mounting a Transwell the epithelium was short-circuited, the current allowed to stabilise, typically for 15 minutes. Given the rarity of apocrine material, drugs were typically added in succession as disclosed by Brayden et al (1988) J. Physiol, 405: 657-675, Pedersen et al (1992) Exp. Physiol, 77; 863-871, and Shen et al, (1994) Am. J. Physiol, 266: L493-501 and changes in short circuit current (I^sc) recorded. The duration of experiments was typically 15-60 min. TER was estimated using Ohm's Law, routinely by clamping the voltage at ±10 mV and measuring the current required to achieve this. Unless otherwise stated all drugs listed in the legend were added to the basolateral side, except for amiloride that was added to the apical side. Amiloride is an inhibitor of the epithelial Na^+ channel (ENaC) and the Na^+/H^+ exchanger.
(§4) Chloride substitution experiments were carried out in Krebs buffer in which sodium gluconate was substituted for NaCl, potassium gluconate for KCl and CaSO4 for CaCl2. Glucose-free experiments were carried out with 11.1 mM mannitol as a replacement to maintain osmolality. Experiments in which barium was used as an inhibitor of potassium channels were carried out in the absence of sulphate ions, such that MgCl2 replaced MgSO4.

[2] = tested on: primary apocrine cultures; test: Short circuit current (Isc) in Ussing chamber, primary apocrine cultures on Transwells; type: cell-based, human; settings: for Peak agonist Isc response, Control / Peak agonist Isc response after amiloride pre-treatment, Control / Peak agonist Isc response, Chloride-free / Peak agonist Isc response after amiloride pre-treatment, Chloride-free / ΔIsc (change of resting short circuit current): primary apocrine; for Peak agonist Isc response, Control / Peak agonist Isc response after amiloride pre-treatment, Control: chloride-containing buffer; for Peak agonist Isc response, Control / Peak agonist Isc response, Chloride-free: Carbachol 20 μM; for Peak agonist Isc response, Control / Peak agonist Isc response after amiloride pre-treatment, Control / Peak agonist Isc response, Chloride-free / Peak agonist Isc response after amiloride pre-treatment, Chloride-free: Histamine 200 μM, ATP 100 μM; for Peak agonist Isc response after amiloride pre-treatment, Control / Peak agonist Isc response after amiloride pre-treatment, Chloride-free: Carbachol 200 μM, Isoprenaline ≧1 μM, LBK 170 nM; for ΔIsc (change of resting short circuit current): amiloride 10 μM apical, furosemide 1 mM basolateral
Experimental: as §1, §2, §3, §4

[3] = tested on: eccrine sweat gland cells; test: Short circuit current (Isc) in Ussing chamber, primary eccrine sweat gland cells; type: cell-based; settings: amiloride 10 μM apical
[4] = tested on: primary cultures of apocrine secretory coils; test: TPA treatment of primary cultures of apocrine secretory coils in MEGM; type: cell-based, human; settings: TPA 250 nM in MEGM; 3-4 days after addition
Experimental: A proliferating apocrine cell line was derived from primary cultures of apocrine secretory coils. After 7 days culture in MEGM, the potent phorbol ester, TPA (phorbol-12-myristate-13 acetate; ex Calbiochem, Nottingham, UK) was included in the medium at a concentration of 250 nM. […] Commonly, the ester comprises at least aliphatic substituent particularly suitably at the 12 and/or 13 positions, such as a long chain alkyl (C7 to C24) and optionally also a short chain alkyl (C2 to C6).
However, the upper differentiated layers were removed by repeated washing to leave a proliferative monolayer of cells still attached to the flask. Cells of the proliferative layer were passaged into 96 well plates to generate clonal cell lines. Cells were maintained, passaged and continued to grow in MEGM containing TPA for approximately 2 months. After this period cells were cultured in MEGM alone and monitored for continued proliferation. Initially, many subclones continued to grow, but by the end of the next 10 passages, the majority had begun to senesce. One culture, in particular, ASG5, continued to grow and has now been maintained in culture, proliferating over more than 40 passages with no signs of a reduction in growth rate. […] This culture continues to proliferate in the absence of TPA, can survive cryopreservation and is considered to be stable.

Row | Molecule | Peak agonist Isc response, Control [1] [μA cm^−2] | Peak agonist Isc response, Chloride-free ([1]; chloride-free buffer) [μA cm^−2] | Peak agonist Isc response after amiloride pre-treatment, Control [1] [μA cm^−2] | Peak agonist Isc response after amiloride pre-treatment, Chloride-free ([1]; chloride-free buffer) [μA cm^−2] | Peak agonist Isc response, Control [2] [μA cm^−2] | Peak agonist Isc response after amiloride pre-treatment, Control [2] [μA cm^−2] | Peak agonist Isc response, Chloride-free ([2]; chloride-free buffer) [μA cm^−2] | Peak agonist Isc response after amiloride pre-treatment, Chloride-free ([2]; chloride-free buffer) [μA cm^−2] | other results
1 | Nc1ncnc2c1ncn2[C@@H]1O[C@H](COP(=O)(O)OP(=O)(O)OP(=O)(O)O)[C@@H](O)[C@H]1O [ATP, Adenosine triphosphate] | 6.3 ± 1.8 | 4.0 ± 0.5 | 1.8 ± 0.3 | 0.8 ± 0.2 | 7.4 ± 1.8 | 4.9 ± 0.7 | 2.9 ± 0.9 | 4.3 ± 2.4 | –
2 | NCCc1c[nH]cn1 [Histamine] | 4.8 ± 1.3 | 3.3 ± 0.8 | 1.9 ± 0.4 | 1.0 ± 0.2 | 6.4 ± 1.3 | 4.2 ± 0.5 | 1.7 ± 0.5 | 2.4 ± 1.4 | –
3 | L-bradykinin (RPPGFSPFR; Bradykinin; UniProt P01042 381-389, looked up) [LBK, agonist added basolaterally] | – | – | 1.6 ± 0.3 | 0.9 ± 0.3 | – | 2.0 ± 0.5 | – | 0.6 ± 0.4 | –
4 | C[N+](C)(C)CCOC(N)=O [Carbachol] | 4.0 ± 0.7 | 3.0 ± 0.8 | 2.4 ± 0.6 | 1.3 ± 0.3 | 3.9 ± 0.7 | 6.3 ± 1.4 | 0.7 ± 0.6 | 1.7 ± 1.2 | –
5 | N=C(N)NC(=O)c1nc(Cl)c(N)nc1N [Amiloride] | – | – | – | – | – | – | – | – | pIC50 ([1]; Homo sapiens, apical amiloride, read-out: IC50 for amiloride (dose response curves, resting Isc)): 5.40 to 5.70; carbachol stimulation of Isc after amiloride pre-treatment (FIG. 4A versus FIG. 3) ([1]; amiloride 10 μM apical, CCh 20 μM): reduced; effect of amiloride pre-treatment on peak Isc responses to CCh, His and ATP (FIG. 2) ([1]; amiloride 10 μM apical, CCh 20 μM, His 200 μM, ATP 100 μM basolateral): significantly reduced; reduction of basal Isc under chloride-free conditions ([1]; amiloride 10 μM, chloride-free buffer, proliferating cultures): 2.5 μA cm^−2; reduction of resting Isc ([1]; apically applied amiloride 10 μM, n=20, P<0.001): 4.5±1.0 μA cm^−2; ΔIsc (change of resting short circuit current) ([1]; amiloride 10 μM apical): −4.2 ± 1.0 μA cm^−2; ΔIsc (change of resting short circuit current) [3]: −7.1 ± 0.7 μA cm^−2; reduction of basal Isc under chloride-free conditions ([2]; amiloride 10 μM, chloride-free buffer, primary cultures): 3.6 μA cm^−2; ΔIsc (change of resting short circuit current) [2]: −6.0 ± 0.9 μA cm^−2
6 | CC(C)NCC(O)c1ccc(O)c(O)c1 (stereo not shown) [Isoprenaline] | – | – | 1.8 ± 0.4 | 0.8 ± 0.2 | – | 1.8 ± 0.4 | – | 0.7 ± 0.3 | –
7 | NS(=O)(=O)c1cc(C(=O)O)c(NCc2ccco2)cc1Cl [Furosemide] | – | – | – | – | – | – | – | – | Inhibition by furosemide of agonist response, ΔIsc ([1]; 90 µM): −1.2 ± 0.3 μA cm^−2; Inhibition by furosemide of agonist response, ΔIsc ([1]; furosemide 90 μM, agonist ATP 100 μM, proliferating): −1.2 ± 0.3 μA cm^−2; Inhibition by furosemide of agonist response, ΔIsc ([1]; furosemide 90 μM, agonist Carbachol ≧20 μM, proliferating): −1.1 ± 0.4 μA cm^−2; Inhibition by furosemide of agonist response, ΔIsc ([1]; furosemide 90 μM, agonist Histamine 200 μM, proliferating): −1.0 ± 0.4 μA cm^−2; magnitude of Isc response to carbachol after furosemide pre-treatment (FIG. 4B versus FIG. 3) ([1]; furosemide 1 mM pre-treatment, CCh 20 μM): reduces the magnitude of response; ΔIsc (change of resting short circuit current) ([1]; amiloride 10 μM apical): −0.8 ± 0.3 μA cm^−2; agonist Isc responses on addition of furosemide after agonist stimulation ([1]; transformed apocrine cultures): rapid reduction in responses; Inhibition by furosemide of agonist response, ΔIsc ([2]; 90 µM): 0.8 ± 0.2 μA cm^−2; Inhibition by furosemide of agonist response, ΔIsc ([2]; furosemide 90 μM, agonist ATP 100 μM, primary): −2.6 ± 0.5 μA cm^−2; Inhibition by furosemide of agonist response, ΔIsc ([2]; furosemide 90 μM, agonist Carbachol ≧20 μM, primary): −2.0 ± 0.5 μA cm^−2; Inhibition by furosemide of agonist response, ΔIsc ([2]; furosemide 90 μM, agonist Histamine 200 μM, primary): −1.3 ± 0.2 μA cm^−2; agonist Isc responses on addition of furosemide after agonist stimulation ([2]; primary apocrine cultures): rapid reduction in responses; ΔIsc (change of resting short circuit current) [2]: −0.5 ± 0.2 μA cm^−2
8 | CCCCCCCCCCCCCC(=O)O[C@@H]1[C@@H](C)[C@@]2(O)[C@@H](C=C(CO)C[C@]3(O)C(=O)C(C)=C[C@@H]23)[C@@H]2C(C)(C)[C@]12OC(C)=O [TPA, phorbol-12-myristate-13 acetate] | – | – | – | – | – | – | – | – | effect on culture morphology (multilayering) [4]: induced premature multilayering
